Columns and labels:
[1] = In vitro drug release, dialysis membrane diffusion technique; assay type: physicochemical
Protocol: The release of CUD-SLN and free CUD in vitro was studied using a dialysis membrane diffusion technique (MWCO 8000–14,000) (He et al. [2020]). Due to the low solubility of CUD in the buffer, Tween 80 was added to satisfy the leaking conditions. A total of 500 mL of PBS buffer with 10% w/v Tween 80 (pH 7.35) was used as a release medium. Next, 2 mL of freshly prepared CUD-SLN (1 mg/mL) was transferred to the dialysis bags, and 2 mg free CUD (suspended in 2 mL 0.5% w/v CMC-Na) was transferred to dialysis bags as a control. The test bags were immersed in a release medium at 37 ± 0.5 °C and stirred at 100 rpm using a dissolution apparatus (ZRS-8G, Intelligent dissolution tester, ZRS-8G, Tianjin, China). An aliquot of the sample (1 mL) was removed from the release medium at 15 and 30 min and 1, 2, 4, 6, 8, 12, 24 and 48 h. After each sampling, the blank dissolution medium was replenished with the same temperature and volume. Removed samples were filtered through a 0.22 μm filter, the CUD content was analysed by a UV–vis spectrophotometer, and the analytical method described before. The in vitro release data of the drug were fitted with the zero-order release equation, the first-order release equation and the Higuchi equation (Ma et al. [2019]).
(§1) Evaluation of the comprehensive design experiment was performed by SPSS 17.0 software (SPSS Inc., Chicago, IL). Fitting of the release curve was performed by Origin 8.0 software. Pharmacokinetic data were processed by DAS 2.1.1 software to obtain relevant pharmacokinetic parameters. Student’s t-test for two groups and one-way ANOVA for multiple groups were employed for the data analysed. p < 0.05 was considered statistically significant.

[2] = Pharmacokinetic study after intravenous injection; assay type: in vivo; conditions: male, Sprague Dawley, rat, SD rats, 5 mg/kg intravenous, plasma, n = 5
Protocol: Sprague Dawley (SD) male rats aged 8 weeks weighing 250–300 g were provided by the Laboratory Animal Center of Southwest Medical University and were placed in a pathogen-free environment, and had free access to food and water. Studies involving animals were approved (approval number: SCXK (Chuan) 2013-17) by the Ethics Committee of Southwest Medical University.
Rats that were used for the pharmacokinetic study were fasted for more than 12 h before use and had free access to water. Rats were randomly divided into two groups (n = 5), namely, the Cur group and CUD-SLN group, Rats in both groups were injected intravenously with 5 mg/kg of corresponding drugs. Approximately, 200 µL of blood was collected using a heparin-coated syringe at 2, 5, 15 and 30 min and at 1, 2, 4, 6, 8, 12, 24, 30, 36, 48, 54, 60, 72 and 84 h after injection. Blood was centrifuged for 10 min at 3000 rpm, and plasma was obtained. Furthermore, 50 µL of acetate buffer (pH 3.5) was added to 100 μL of plasma. After vortexing for 1 min, 0.5 mL of extract solvent (methanol–ethyl acetate 10:90, v/v) was added to the mixture, the mixture was vortexed again for 3 min, followed by centrifugation for 3 min at 8000 rpm. Then, 0.5 mL of supernatant was removed and evaporated with nitrogen flow. Next, 200 μL of reconstituted solvent (acetonitrile contains 0.1% phosphoric acid) was added to the dry residue, vortexed for 4 min, sonicated for 4 min, and centrifuged for 10 min at 10,000 rpm, A total of 50 μL of the supernatant was removed for the high-performance liquid chromatography (HPLC) (1260 Infinity II, Agilent Technologies, Santa Clara, CA) and calculated with the standard curve (Cur: A = 157.21 C + 0.148, R^2=0.9991, range: (0.02, 12) μg/mL; CUD: A = 18.159 C + 0.4884, R^2=0.9998, range: (0.02, 5) μg/mL; A = 46.552 C – 179.81, R^2=0.9997, range: (5, 160) μg/mL). […] The detection wavelength was 409 nm (Guo et al. [2020]).
as §1

| AUC(0-inf) [2] | AUC(0-t) [2] | Cmax [2] | Tmax [2] | clearance ([2]; read-out: CLz (clearance) (converted)) | MRT last ([2]; read-out: MRT0–t) | MRT inf ([2]; read-out: MRT0–∞) | half-life ([2]; read-out: t1/2z (half-life) (converted)) | Compound | cumulative release of CUD at 48 h ([1]; PBS with 10% w/v Tween 80, pH 7.35, 37 °C, 100 rpm, n = 6) | First-order equation k1 ([1]; fit of in vitro release data) | Higuchi's equation kh ([1]; fit of in vitro release data) | Zero order equation k0 ([1]; fit of in vitro release data) |
| --- | --- | --- | --- | --- | --- | --- | --- | --- | --- | --- | --- | --- |
|  |  |  |  |  |  |  |  | Carbonic acid 17-(1,5-dimethyl-hexyl)-10,13-dimethyl-2,3,4,7,8,9,10,11,12,13,14,15,16,17-tetradecahydro-1H-cyclopenta[a]phenanthren-3-yl ester 4-[7-(4-hydroxy-3-methoxy-phenyl)-3,5-dioxo-hepta-1,6-dienyl]-2-methoxy-phenyl ester [CUD] | 60.24 ± 5.08% | 0.2258 | 8.6574 | 1.0410 |
| 4880 ng·h/mL | 4600 ng·h/mL | 332 ng/mL | 6 h | 171 mL/min/kg | 9.53 h | 10.8 h | 5.6 h | COc1cc(/C=C/C(=O)CC(=O)/C=C/c2ccc(O)c(OC)c2)ccc1O [Cur, Curcumin] |  |  |  |  |

— publication PMC9704087, “Solid lipid nanoparticle as an effective drug delivery system of a novel curcumin derivative: formulation, release in vitro and pharmacokinetics in vivo” (Pharmaceutical Biology, 2022)
